Reference: ChEMBL document CHEMBL4680303, “Amine skeleton-based c-di-GMP derivatives as biofilm formation inhibitors” (Bioorg Med Chem Lett, 2021)
Activity calls are given as the source filed them. The calls are words filed in the database; no cut-off is given here.

Key:
[1] = test system: Escherichia coli; experiment: Antibiofilm activity against Escherichia coli DH5alpha assessed as inhibition of biofilm formation at 500 uM incubated for 24 hrs by crystal violet staining based microtiter plate reader assay relative to control; values are per cent of control; conditions: DH5[alpha]
[2] = test system: Streptococcus mutans; experiment: Antibiofilm activity against Streptococcus mutans NBRC13955 assessed as inhibition of biofilm formation at 500 uM incubated for 24 hrs by crystal violet staining based microtiter plate reader assay relative to control; values are per cent of control; conditions: NBRC13955, 24 h
[3] = test system: Staphylococcus aureus; experiment: Antibiofilm activity against Staphylococcus aureus NBRC13276 assessed as inhibition of biofilm formation at 500 uM incubated for 24 hrs by crystal violet staining based microtiter plate reader assay relative to control; values are per cent of control; conditions: NBRC13276, 24 h
[4] = test system: Staphylococcus aureus; experiment: Antibacterial activity against Staphylococcus aureus NBRC13276 assessed as bacterial cell density at 500 uM relative to control; format: functional
[5] = test system: Pseudomonas aeruginosa; experiment: Antibiofilm activity against Pseudomonas aeruginosa NBRC13275 assessed as inhibition of biofilm formation at 500 uM incubated for 6 hrs by crystal violet staining based microtiter plate reader assay relative to control; values are per cent of control; conditions: NBRC13275, 6 h
[6] = test system: Pseudomonas aeruginosa; experiment: Antibacterial activity against Pseudomonas aeruginosa NBRC13275 assessed as bacterial cell density at 500 uM relative to control; format: functional
[7] = test system: Escherichia coli; experiment: Antibacterial activity against Escherichia coli DH5alpha assessed as bacterial cell density at 500 uM relative to control; format: functional, DH5[alpha]
[8] = test system: Streptococcus mutans; experiment: Antibacterial activity against Streptococcus mutans NBRC13955 assessed as bacterial cell density at 500 uM relative to control; format: functional
[9] = Growth inhibition of Staphylococcus aureus NBRC13276 at 1000 uM
[10] = test system: Pseudomonas aeruginosa; experiment: Antimicrobial activity against Pseudomonas aeruginosa assessed as inhibition of flagella synthesis relative to control; format: functional, organism-based

Row | SMILES | biofilm formation (% of control) at 500 µM [1] [%] | biofilm formation (% of control) at 500 µM [2] [%] | biofilm formation (% of control) at 500 µM [3] [%] | Activity [4] [%] | biofilm formation (% of control) at 500 µM [5] [%] | Activity [6] [%] | Activity [7] [%] | Activity [8] [%] | growth inhibition (GI) [9] | Activity [10]
1 | CC(C)C(=O)N(CCNC(=O)Cn1cnc2c(=O)[nH]c(N)nc21)CCNC(=O)Cn1cnc2c(=O)[nH]c(N)nc21 | 107 | 147 | 103 | 92 | 83 | 98 | 97 | 104 | – | –
2 | CC(=O)N1CCN(C(=O)Cn2cnc3c(=O)[nH]c(N)nc32)CCN(C(C)=O)CCN(C(=O)Cn2cnc3c(=O)[nH]c(N)nc32)CC1 | 36 | 40 | 20 | 150 | 60 | 90 | 52 | 136 | Non-Toxic | inactive
3 | Nc1nc2c(ncn2CC(=O)N2CCN(C(=O)OCc3ccccc3)CCN(C(=O)Cn3cnc4c(=O)[nH]c(N)nc43)CCN(C(=O)OCc3ccccc3)CC2)c(=O)[nH]1 | 138 | 17 | 80 | 111 | 86 | 105 | 91 | 143 | – | –
4 | CCC(=O)N(CCNC(=O)Cn1cnc2c(=O)[nH]c(N)nc21)CCNC(=O)Cn1cnc2c(=O)[nH]c(N)nc21 | 97 | 125 | 85 | 92 | 94 | 98 | 95 | 106 | – | –
5 | Nc1nc2c(ncn2CC(=O)NCCNCCNC(=O)Cn2cnc3c(=O)[nH]c(N)nc32)c(=O)[nH]1 | 99 | 98 | 42 | 102 | 87 | 112 | 95 | 109 | – | –
6 | CC(C)C(=O)N1CCN(C(=O)Cn2cnc3c(=O)[nH]c(N)nc32)CCN(C(=O)C(C)C)CCN(C(=O)Cn2cnc3c(=O)[nH]c(N)nc32)CC1 | 118 | 88 | 87 | 267 | 114 | 313 | 559 | 206 | – | –
7 | CCC(=O)N1CCN(C(=O)Cn2cnc3c(=O)[nH]c(N)nc32)CCN(C(=O)CC)CCN(C(=O)Cn2cnc3c(=O)[nH]c(N)nc32)CC1 | 153 | 46 | 76 | 124 | 76 | 118 | 105 | 117 | – | –
8 | CC(=O)NCCNCCNC(=O)Cn1cnc2c(=O)[nH]c(N)nc21 | 108 | 101 | 135 | 100 | 99 | 119 | 85 | 92 | – | –
9 | Nc1nc2c(ncn2CC(=O)N2CCNCCN(C(=O)Cn3cnc4c(=O)[nH]c(N)nc43)CC2)c(=O)[nH]1 | 103 | 92 | 92 | 103 | 105 | 105 | 95 | 121 | – | –
10 | NCCN(CCNC(=O)Cn1cnc2c(=O)[nH]c(N)nc21)C(=O)Cn1cnc2c(=O)[nH]c(N)nc21 | 104 | 87 | 87 | 124 | 103 | 116 | 95 | 98 | – | –
11 | Nc1nc2c(ncn2CC(=O)NCCN(CCNC(=O)Cn2cnc3c(=O)[nH]c(N)nc32)CC(=O)O)c(=O)[nH]1 | 138 | 78 | 87 | 99 | 82 | 126 | 95 | 188 | – | –
12 | Nc1nc2c(ncn2CC(=O)N2CCN(CC(=O)O)CCN(C(=O)Cn3cnc4c(=O)[nH]c(N)nc43)CCN(CC(=O)O)CC2)c(=O)[nH]1 | 83 | 90 | 74 | 117 | 82 | 90 | 85 | 105 | – | –
13 | Nc1nc2c(ncn2CC(=O)N2CCNCCN(C(=O)Cn3cnc4c(=O)[nH]c(N)nc43)CCNCC2)c(=O)[nH]1 | 133 | 96 | 89 | 108 | 85 | 100 | 93 | 138 | – | –
14 | CC(=O)N(CCNC(=O)Cn1cnc2c(=O)[nH]c(N)nc21)CCNC(=O)Cn1cnc2c(=O)[nH]c(N)nc21 | 116 | 87 | 76 | 108 | 104 | 119 | 101 | 154 | – | –
15 | Nc1nc2c(ncn2[C@@H]2O[C@@H]3COP(=O)(O)O[C@H]4[C@@H](O)[C@H](n5cnc6c(=O)[nH]c(N)nc65)O[C@@H]4COP(=O)(O)O[C@H]3[C@H]2O)c(=O)[nH]1 | 81 | 18 | 123 | 106 | 48 | 78 | 76 | 98 | – | –
